The ΔTm is the shift of the melting midpoint relative to a reference. Broadly, the Kd is a measure of binding affinity in units of concentration.

For assay [1], the target named is T1, T-p53C-Y220C (Homo sapiens, UniProt P04637, M133L/N239Y/N268D/V203A/Y220C).
T1 construct: For all other experiments, the DNA coding for residues 94-312 of T-p53C was inserted into a modified pET24a(+) vector; 6xHis tag + B. stearothermophilus dihydrolipoyl acetyltransferase lipoyl domain (aa 1-85) + TEV site (N, cleaved yes); made in house; host or cells: Escherichia coli BL21 (DE3) or C41 (DE3)
Briefly: Thermal denaturation using capillary DSC. Format: binding. To be noted: for ΔTm: increase in Tm on adding 250 μM of the test compound, 20 μM protein. Here is the method: Differential Scanning calorimetry (DSC) was used to probe the stabilising effect of the ligands on […]. For a reversible two-state system, the melting temperature, Tm, is the transition temperature where the folded and unfolded states are equally populated.
DSC experiments were performed using a Microcal VP-Capillary DSC instrument (Microcal, Amherst, Mass.) with an active cell volume of ˜125 μl. Protein samples were buffer exchanged into 25 mM NaPi, pH 7.2, 150 mM NaCl, 5 mM DTT. This buffer + the respective concentration of ligand/DMSO was used for baseline scans, so that the only difference between sample and reference cell or sample cell in the measurement and both cells in the baseline scan is the presence of the protein. A final concentration of 20 μM T-p53C-Y220C was used. A pressure of 2.5 bars (nitrogen) was applied to the cell. Temperatures from 10 to 85° C. were scanned at a rate of 250° C./h, with a filtering period of 4 seconds and feedback gain/mode set at medium. Data were analysed with ORIGIN software (Microcal).
The following tables show the results of the thermal denaturation studies using capillary DSC, where ΔTm is the increase in Tm on adding 250 μM of the test compound. The Dunnett significance test (P) value given is the calculated probability that the change in Tm is insignificant.

Assay [2] deals with T1, T-p53C-Y220C. Nature of the assay: Thermal denaturation using fluorescence (Sypro Orange). To be noted: 10 μM protein. Format: binding. On the procedure: This was by an adaption of the classical procedure (e.g. ref A6). Thermal unfolding was monitored by the binding of the dye Sypro Orange (5×) using a Rotor-gene 6000 (Corbett Life Science) at 270 K/h in 25 mM NaPi, 150 mM NaCl and 5 mM DTT, pH 7.2 with a protein concentration of 10 μM.
(§1) Where listed, S.E. is the calculated standard error.
as §1

Assay [3] addresses T1, T-p53C-Y220C. Nature of the assay: 1H/15N-HSQC NMR chemical shift binding (KD NMR). Here is the method:
Uniformly ^15N-labelled core domains of T-p53C-Y220C was expressed and purified according to the above described protocol. The low molecular-weight compounds were dissolved in d^6-DMSO to make 10 mM stock solutions. To screen compound mixtures by chemical shift mapping, 10 μl of each of 4 different compounds were mixed together and 25 μl of this mixture was added to 25 μl of D2O and 500 μl of 70 μM T-p53C-Y220C (in 25 mM NaPi, 150 mM NaCl and 5 mM DTT, pH 7.2 ). […] NMR samples were freshly prepared and kept sealed under argon after degassing by repeated cycles of pumping the NMR tube under low pressure (while gently tapping the tube) and returning to atmospheric pressure using a stream of argon gas. This was done to maintain sample stability.
Using Bruker's TopSpin 2.0 software, the number of complex points in t1 was doubled by forward complex linear prediction and shifted squared sine bell window functions were applied to both dimensions prior to zero filling and Fourier transformation. A digital resolution of 2.0 Hz/point in the ^1H frequency dimension and 4.7 Hz/point in the ^15N frequency dimension was used. […] An in-house script was used to analyse chemical shift differences and map these onto PDB protein structures.
For certain compounds an array of different concentrations were used to derive KD values (KD NMR) by fitting a saturation binding equation (Δδ=c+a*[L]/(KD+[L])) to the concentration-dependent chemical shift changes of the relevant shifting peaks.

The target of assay [4] is T1, T-p53C-Y220C. Briefly: Melting temperature of T-p53C-Y220C, method not stated. Format: binding.
In assay [5] the target is T1, T-p53C-Y220C. Briefly: Equilibrium sedimentation analytical ultracentrifugation (AUC) binding. An excerpt:
Analytical centrifugation studies the distribution of molecules under gravity force. In equilibrium sedimentation experiment the solute concentrates at the bottom of the cell and forms a concentration gradient. The steepness of this gradient depends on the molecular weight of the solute, the heavier the molecule the steeper the gradient. Small molecules have a molecular weight around 500 Da, and p53 core domain is large protein molecule of 24.5 kDa. Under the experimental conditions chosen, small molecules form a very shallow, practically negligible gradient, while p53 presents a very well defined sedimentation profile. […] By monitoring the distribution of the small molecule via absorbance at wavelengths above 300 nm (the ligands must absorb light in this spectral range for the method to work) so that signal is not affected by the absorbance of the protein (e.g., 310, 340 and 380 nm), it is possible to determine if the small molecule binds to the protein, and in many cases measure the dissociation constant. […]
Equilibrium sedimentation experiments were performed on a Beckman XL-I ultracentrifuge using Ti-50 rotor and 6-sector cells. at speeds of 30,000 and 40,000 rpm at 10° C. Up to 21 samples were analysed simultaneously. […] The samples contained ligand at concentration of 15 μM-40 μM, with absorbance of 0.3-0.5 at one of the selected wavelengths and 100 μM T-p53-Y220C.

Setting [6] is: further studies on compounds described above.
[7] abbreviates: KD (@ 20° C.) μM, further NMR studies, some revised values.

Consider `CCC(CO)NCc1ccc2c(c1)c1ccccc1n2CC` (stereo not drawn) [PK209], for which, in assay [1], the ΔTm was determined as 0.79 °C. Also, the “ΔTm (° C.)” value in assay [2] (setting [6]) is 0.793 °C. The Kd in assay [3] (setting [7]) worked out at 97 µM.
Consider `NC(=O)c1c[nH]c2ccccc12` [1H-indole-3-carboxamide], for which, in assay [4], the “effect on melting temperature” value is “raise its melting temperature”.
As for `CCn1c2ccccc2c2cc(CNCCN(C)C)ccc21` [PK207], in assay [1], the ΔTm was found to be 0.57 °C. In addition, in assay [2] (setting [6]), the “ΔTm (° C.)” value is 0.57 °C. For the same compound, the Kd in assay [3] (setting [7]) stood at 200 µM.
On to `CCn1c2ccccc2c2cc(C3CC4CN(C)C(=O)C45CCCN35)ccc21` (stereo not drawn) [PK226], for which the ΔTm in assay [1] stood at 1.11 °C. Besides, the “ΔTm (° C.)” value in assay [2] (setting [6]) was determined as 1.0 °C. Besides, the Kd in assay [3] (setting [7]) worked out at 113 µM.
With `CCn1c2ccccc2c2cc(CNCCCn3ccnc3)ccc21` [PK214], in assay [2] (further compounds), the “ΔTm (° C.)” value came out at 0.9 °C. Moreover, in assay [3] (setting [7]), the Kd amounted to 76 µM.
With `CCn1c2ccccc2c2cc(NC(=O)CN3C(=O)NC(C)(c4ccc(C)cc4)C3=O)ccc21` (stereo not drawn) [PK110], the ΔTm in assay [1] is 0.37 °C. In assay [2] (setting [6]), the “ΔTm (° C.)” value was determined as 0.37 °C.
For the compound `CCn1c2ccccc2c2cc(NC(=O)C(C)N3CCN(CC(N)=O)CC3)ccc21` (stereo not drawn) [PK152], the ΔTm in assay [1] is 0.22 °C. Moreover, the “ΔTm (° C.)” value in assay [2] (setting [6]) was 0.22 °C.
For the compound `CCn1c2ccccc2c2cc(NC(C)C(=O)NC(N)=O)ccc21` (stereo not drawn) [PK158], the thermal shift (ΔTm) in assay [1] turned out to be 0.63 °C. In assay [2] (setting [6]), the “ΔTm (° C.)” value is 0.63 °C.
`CCn1c2ccccc2c2cc(NC(=O)COC(=O)c3ccc(NC(=O)CC#N)cc3)ccc21` [PK140]: in assay [1], the shift in melting temperature (ΔTm) came out at 0.51 °C. Further, in assay [2] (setting [6]), the “ΔTm (° C.)” value was determined as 0.513 °C.
The matching figures for `CCn1c2ccccc2c2cc(NC(=O)COC(=O)c3cc(C(=O)OC)cc([N+](=O)[O-])c3)ccc21` [PK137]: 0.29 °C and 0.3 °C.
For `CCn1c2ccccc2c2cc(NC(=O)C(C)OC(=O)c3ccc([N+](=O)[O-])o3)ccc21` (stereo not drawn) [PK119], in that order: 0.48 °C and 0.48 °C.
For the compound `CCCN1CCN(C(C)C(=O)Nc2ccc3c(c2)c2ccccc2n3CC)CC1` (stereo not drawn) [PK142], in assay [1], the shift in melting temperature (ΔTm) turned out to be 0.26 °C. Further, in assay [2] (setting [6]), the “ΔTm (° C.)” value stood at 0.26 °C.
As for `CCn1c2ccccc2c2cc(CN3CCC(n4cc(C(=O)NCCO)nn4)CC3)ccc21` [PK221], the thermal shift (ΔTm) in assay [1] was 0.52 °C. Moreover, the “ΔTm (° C.)” value in assay [2] (setting [6]) worked out at 0.54 °C.
The matching figures for `CCn1c2ccccc2c2cc(NC(=O)C(C)OC(=O)c3ccc(-n4cnnn4)cc3)ccc21` (stereo not drawn) [PK134]: 0.4 °C and 0.4 °C.
With `CCn1c2ccccc2c2cc(CNCCO)ccc21` [PK211], in assay [1], the ΔTm was determined as 0.58 °C. In assay [2] (setting [6]), the “ΔTm (° C.)” value worked out at 0.58 °C. Moreover, the Kd in assay [3] (setting [7]) worked out at 120 µM.
As for `CCn1c2ccccc2c2cc(CNC)ccc21` [PK083], the Kd in assay [1] (at 316-318 K, read-out: approximate KD from DSC stabilization fit) was about 140 µM; in assay [3] (setting [7]), 114 µM; in assay [3] (KD (@ 20° C.), 1H/15N-HSQC), 167 µM; in assay [5], 170 µM. In assay [1], the ΔTm was found to be 0.75 °C. The “ΔTm (° C.)” value in assay [2] (setting [6]) is 0.76 °C.

(Values after patent publication US20110059953A1, “COMPOUNDS FOR USE IN STABILIZING P53 MUTANTS” (priority 2008, published 2011).)
